# Experimental data reported in patent publication US5703236A, “Tetrahydrofuran antifungals” (Schering Corporation, priority 1995, dated 1997).
# Experiments:
# Dermatophytes = assay: conventional broth dilution in vitro antifungal test, dermatophytes; type: cell-based, T. rubrum, T. mentagrophytes, and T. tonsurans; conditions: 6 strains
# Candida albicans = assay: conventional broth dilution in vitro antifungal test, Candida albicans; type: cell-based; conditions: 26 strains; for percentage of strains with MFCs ≤ 1 mcg/mL: Table R (MFCs); for PERCENTAGE OF STRAINS WITH MICs ≤ 1 MCG/ML: Table Q
# Experimental: (§1) The in vitro antifungal activity tests were performed via conventional broth dilution methods in Sabouraud dextrose broth ("SDB") medium and Eagles Minimum Essential Medium ("EMEM") against a large number of fungi. Minimum Inhibitory Concentrations ("MICs") were measured after 24, 48 and 72 hour tests. In many cases, Minimum Fungicidial Concentrations ("MFCS") were measured after 48 and 72 hours.
# [1] = system: Candida tropicalis & stellatoidea; assay: conventional broth dilution in vitro antifungal test, Candida tropicalis & stellatoidea; type: cell-based; conditions: 5 strains
# Experimental: as §1
# Cryptococcus neoformans = assay: conventional broth dilution in vitro antifungal test, Cryptococcus neoformans; type: cell-based; conditions: 3 strains; for MIC 90: Table S
# Experimental: as §1
# Candida krusei = assay: conventional broth dilution in vitro antifungal test, Candida krusei; type: cell-based; conditions: 16 strains
# Experimental: as §1
# Aspergillus = assay: conventional broth dilution in vitro antifungal test, Aspergillus; type: cell-based, Aspergillus flavus, fumigatus and other species; conditions: 37 strains
# Experimental: as §1
# Candida glabrata = assay: conventional broth dilution in vitro antifungal test, Candida glabrata; type: cell-based; conditions: 9 strains; for percentage of strains with MFCs ≤ 1 mcg/mL: Table R (MFCs); for PERCENTAGE OF STRAINS WITH MICs ≤ 1 MCG/ML: Table Q
# Experimental: as §1
# [2] = system: cytochrome P-450 liver drug metabolizing enzymes; assay: induction of cytochrome P-450 liver drug metabolizing enzymes, in vivo rat model; conditions: oral administration
# [3] = serum levels, half lives and tissue distribution following oral dosing; type: in vivo; conditions: mice, rats, dogs and monkeys, methyl cellulose formulation
Structure (SMILES),PERCENTAGE OF STRAINS WITH MICs ≤ 1 MCG/ML (Dermatophytes; Table R (MFCs)) [%],percentage of strains with MFCs ≤ 1 mcg/mL (Candida albicans) [%],PERCENTAGE OF STRAINS WITH MICs ≤ 1 MCG/ML ([1]; Table R (MFCs)) [%],PERCENTAGE OF STRAINS WITH MICs ≤ 1 MCG/ML (Cryptococcus neoformans; Table R (MFCs)) [%],PERCENTAGE OF STRAINS WITH MICs ≤ 1 MCG/ML (Candida krusei; Table R (MFCs)) [%],PERCENTAGE OF STRAINS WITH MICs ≤ 1 MCG/ML (Aspergillus; Table R (MFCs)) [%],percentage of strains with MFCs ≤ 1 mcg/mL (Candida glabrata) [%],induction of cytochrome P-450 liver drug metabolizing enzymes [2],serum levels compared to azoles of similar structure [3],PERCENTAGE OF STRAINS WITH MICs ≤ 1 MCG/ML (Dermatophytes; Table Q) [%],PERCENTAGE OF STRAINS WITH MICs ≤ 1 MCG/ML (Candida albicans) [%],PERCENTAGE OF STRAINS WITH MICs ≤ 1 MCG/ML ([1]; Table Q) [%],PERCENTAGE OF STRAINS WITH MICs ≤ 1 MCG/ML (Cryptococcus neoformans; Table Q) [%],MIC 90 (Cryptococcus neoformans),PERCENTAGE OF STRAINS WITH MICs ≤ 1 MCG/ML (Candida krusei; Table Q) [%],PERCENTAGE OF STRAINS WITH MICs ≤ 1 MCG/ML (Aspergillus; Table Q) [%],PERCENTAGE OF STRAINS WITH MICs ≤ 1 MCG/ML (Candida glabrata) [%]
"OC(Cn1cncn1)(Cn1cncn1)c1ccc(F)cc1F [FLZ, fluconazole, reference compound]",0,100,100,0,0,0,0,–,–,–,–,–,–,–,–,–,–
CCC(C(C)O)n1ncn(-c2ccc(N3CCN(c4ccc(OCC5COC(Cn6cncn6)(c6ccc(F)cc6F)C5)cc4)CC3)cc2)c1=O (centres unmarked) [drawing 28],–,–,–,–,–,–,–,not inducers of various cytochrome P-450 liver drug metabolizing enzymes,consistently higher serum levels,–,–,–,–,–,–,–,–
CCC(C(C)O)n1ncn(-c2ccc(N3CCN(c4ccc(OCC5COC(Cn6cncn6)(c6ccc(F)cc6F)C5)cc4)CC3)cc2)c1=O (centres unmarked) [drawing 29],67,100,100,100,88,50,22,–,–,100,100,100,100,.05 MCG/ML,100,100,22
CCC(C(C)O)n1ncn(-c2ccc(N3CCN(c4ccc(OCC5COC(Cn6cncn6)(c6ccc(F)cc6F)C5)cc4)CC3)cc2)c1=O (centres unmarked) [drawing 30],83,100,100,100,94,62,22,–,–,100,100,100,100,.007 MCG/ML,100,100,22
CCC(C(C)O)n1ncn(-c2ccc(N3CCN(c4ccc(OCC5COC(Cn6cncn6)(c6ccc(F)cc6F)C5)cc4)CC3)cc2)c1=O (centres unmarked) [drawing 31],100,100,100,100,100,89,22,–,–,100,100,100,100,–,100,100,33
